Laboratory results as given in patent publication US10231452B2, “Thiopicolinamide compounds with fungicidal activity” (Dow AgroSciences LLC, priority 2016, dated 2019).
Where two headings read alike, the source gives them in different places.

What was measured:
[1] = tested on: Zymoseptoria tritici; assay: Fungicidal activity: leaf blotch of wheat (SEPTTR), disease control on wheat seedlings; assay type: in vivo; settings: wheat (Yuma); for pest or weed control at 121.5 g/ha: low volume application, 121.5 g/H; for pest or weed control at 100 ppm: high volume application
Experimental: Evaluation of Fungicidal Activity: Leaf Blotch of Wheat (Zymoseptoria Tritici; Bayer Code […]) Technical grades of materials were dissolved in acetone, which were then mixed with nine volumes of water (H2O) containing 110 ppm Triton X-100. The fungicide solutions were applied onto wheat seedlings using an automated booth sprayer to run-off. All sprayed plants were allowed to air dry prior to further handling. All fungicides were evaluated using the aforementioned method for their activity vs. all target diseases, unless stated otherwise. Wheat leaf blotch and brown rust activity were also evaluated using track spray applications, in which case the fungicides were formulated as EC formulations, containing 0.1% Trycol 5941 in the spray solutions. Wheat plants (variety Yuma) were grown from seed in a greenhouse in 50% mineral soil/50% soil-less Metro mix until the first leaf was fully emerged, with 7-10 seedlings per pot. These plants were inoculated with an aqueous spore suspension of Zymoseptoria tritici either prior to or after fungicide treatments. After inoculation the plants were kept in 100% relative humidity (one day in a dark dew chamber followed by two to three days in a lighted dew chamber at 20° C.) to permit spores to germinate and infect the leaf. The plants were then transferred to a greenhouse set at 20° C. for disease to develop. When disease symptoms were fully expressed on the 1st leaves of untreated plants, infection levels were assessed on a scale of 0 to 100 percent disease severity. Percent disease control was calculated using the ratio of disease severity on treated plants relative to untreated plants.

[2] = tested on: Puccinia triticina; assay: Fungicidal activity: wheat brown rust (PUCCRT), disease control on wheat seedlings; assay type: in vivo; settings: wheat (Yuma); for pest or weed control at 121.5 g/ha: low volume application, 121.5 g/H; for pest or weed control at 100 ppm: high volume application
Experimental: Technical grades of materials were dissolved in acetone, which were then mixed with nine volumes of water (H2O) containing 110 ppm Triton X-100. The fungicide solutions were applied onto wheat seedlings using an automated booth sprayer to run-off. All sprayed plants were allowed to air dry prior to further handling. All fungicides were evaluated using the aforementioned method for their activity vs. all target diseases, unless stated otherwise. Wheat leaf blotch and brown rust activity were also evaluated using track spray applications, in which case the fungicides were formulated as EC formulations, containing 0.1% Trycol 5941 in the spray solutions.
Evaluation of Fungicidal Activity: Wheat Brown Rust (Puccinia Triticina; Synonym: Puccinia recondita f. Sp. Tritici; Bayer Code PUCCRT)
Wheat plants (variety Yuma) were grown from seed in a greenhouse in 50% mineral soil/50% soil-less Metro mix until the first leaf was fully emerged, with 7-10 seedlings per pot. These plants were inoculated with an aqueous spore suspension of Puccinia triticina either prior to or after fungicide treatments. After inoculation the plants were kept in a dark dew room at 22° C. with 100% relative humidity overnight to permit spores to germinate and infect the leaf. The plants were then transferred to a greenhouse set at 24° C. for disease to develop. Fungicide formulation, application and disease assessment followed the procedures as described in the Example A. The results of the evaluation are shown below in Table 4.

[3] = tested on: Phakopsora pachyrhizi; assay: Fungicidal activity: Asian soybean rust (PHAKPA), disease control on soybean seedlings; assay type: in vivo; settings: soybean (Williams 82)
Experimental: Evaluation of Fungicidal Activity: Asian Soybean Rust (Phakopsora pachyrhizi; Bayer Code PHAKPA)
Technical grades of materials were dissolved in acetone, which were then mixed with nine volumes of H2O containing 0.011% Tween 20. The fungicide solutions were applied onto soybean seedlings using an automated booth sprayer to run-off. All sprayed plants were allowed to air dry prior to further handling.
Soybean plants (variety Williams 82) were grown in soil-less Metro mix, with one plant per pot. Two weeks old seedlings were used for testing. Plants were inoculated either 3 days prior to or 1 day after fungicide treatments. Plants were incubated for 24 h in a dark dew room at 22° C. and 100% relative humidity then transferred to a growth room at 23° C. for disease to develop. Disease severity was assessed on the sprayed leaves.

[4] = 24 h, 1 day protectant, read-out: SEPTTR 1DP disease control, LV activity at 121.5 g/H
[5] = 72 h, 3 day curative, read-out: SEPTTR 3DC disease control, LV activity at 121.5 g/H
[6] = 24 h, 1 day protectant, read-out: PUCCRT 1DP disease control, LV activity at 121.5 g/H
[7] = 72 h, 3 day curative, read-out: PUCCRT 3DC disease control, LV activity at 121.5 g/H
[8] = 24 h, 1 day protectant, read-out: SEPTTR 1DP disease control, HV activity at 100 ppm
[9] = 72 h, 3 day curative, read-out: SEPTTR 3DC disease control, HV activity at 100 ppm
[10] = 24 h, 1 day protectant, read-out: PUCCRT 1DP disease control, HV activity at 100 ppm
[11] = 72 h, 3 day curative, read-out: PUCCRT 3DC disease control, HV activity at 100 ppm

SMILES | pest or weed control at 121.5 g/ha [1, 4] | pest or weed control at 121.5 g/ha [1, 5] | pest or weed control at 121.5 g/ha [2, 6] | pest or weed control at 121.5 g/ha [2, 7] | pest or weed control at 100 ppm [1, 8] | pest or weed control at 100 ppm [1, 9] | pest or weed control at 100 ppm [2, 10] | pest or weed control at 100 ppm [2, 11] | melting point | pest or weed control at 25 ppm ([3]; 24 h, 1 day protectant, read-out: PHAKPA 1DP disease control at 25 ppm) | pest or weed control at 25 ppm ([3]; 72 h, 3 day curative, read-out: PHAKPA 3DC disease control at 25 ppm)
CCCCC[C@@H](OC(=O)[C@H](C)NC(=S)c1nccc(OC)c1OC(C)=O)[C@H](C)Oc1ccccc1 [Compound 41] | > 80% | > 80% | > 80% | > 80% |  |  |  |  |  |  | 
COc1cc(C)ccc1C(c1ccc(F)cc1OC)[C@H](C)OC(=O)[C@H](C)NC(=S)c1nccc(OC)c1O (some centres unmarked) [Compound 29] |  |  |  |  | > 80% | > 80% | > 80% | > 80% | 60 to 72 °C |  | 
COc1ccnc(C(=S)N[C@@H](C)C(=O)O[C@@H](C)[C@H](Oc2ccc(C)cc2)C2CCCC2)c1O [Compound 38] |  |  |  |  | > 80% | ≤ 80% | > 80% | > 80% | 49 to 57 °C |  | 
COc1cc(C)ccc1C(c1ccc(F)cc1OC)[C@H](C)OC(=O)[C@H](C)NC(=S)c1nccc(OC)c1OC(C)=O (some centres unmarked) [Compound 65] | > 80% | > 80% | > 80% | > 80% |  |  |  |  |  | > 80% | ≤ 80%
